What follows are compounds tested against T1, GST-Bfl-1 (Homo sapiens, UniProt Q16548) (assay: Bfl-1/FITC-Bid BH3 competitive fluorescence polarization assay). Settings: primary HTS hits, MLSCN library (PubChem SIDs), Table 5B.
T1 construct: lacking their C-terminal transmembrane domains (about the last 20 amino acids) (“ΔTM”); made in house; host or cells: XL-1 Blue E. coli, pGEX 4T-1
T1 sequence (Q16548 1-155 limits assumed): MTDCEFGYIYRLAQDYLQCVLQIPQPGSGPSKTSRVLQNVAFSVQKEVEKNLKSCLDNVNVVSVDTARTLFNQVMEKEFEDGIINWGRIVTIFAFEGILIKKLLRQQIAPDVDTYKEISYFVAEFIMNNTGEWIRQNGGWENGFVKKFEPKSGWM
Type: binding
Method: A FPA was performed to determine the binding affinity of FITC-Bid BH3 peptide to Bcl-2 proteins. […] IC50 determinations were performed using GraphPad Prism software (GraphPad, Inc., San Diego, Calif.). FPA competition assays were performed using the same procedure described above, except that 100 nM of GST-Bfl-1 protein in a volume of 45 μl was incubated with 5 μl (50 μM) test compounds in DMSO per well for 30 min prior to addition of 50 μl (5 nM) FITC-Bid BH3 peptide. The final DMSO concentration was 5% when the reactions brought to fall volume of 100 μl. Fluorescence polarization was measured after 10 min. Compounds that reduced the fluorescence polarization by 50% were considered hits.
For `CCOC(=O)C1=C(C)S/C(=C\N(C)C)C1=O` [Compound 7972859], the “% Activity” value was 68.4% and the FRatio was 0.91.
With `O=[N+]([O-])c1cc(-c2ccc(/C=N/c3nc4ccccn4c3-c3ccco3)o2)ccc1Cl` [Compound 17388349] the “% Activity” value was 60.5% and the FRatio was 0.99.
In the case of `Cc1cc(C)c(NC(=O)CN(c2ccccc2)S(=O)(=O)N(C)C)c(C)c1` [Compound 14746364], the “% Activity” value is reported as 90.5% and the FRatio is reported as 0.65.
`Cc1ccc(S(=O)(=O)Cc2ccc(C(=O)N3CCc4ccccc4C3)o2)cc1` [Compound 14733336] was tested, and the “% Activity” value was 60.8% and the FRatio was 0.93.
In the case of `Cc1ccc(C)n1-c1sccc1C(=O)O` [Compound 14729511], the “% Activity” value is reported as 80% and the FRatio is reported as 0.77.
With `O=c1nc2s/c(=C\c3ccco3)c(=O)n2nc1Cc1ccc(F)cc1` [Compound 863170] the “% Activity” value was 58.4% and the FRatio was 0.32.
For `CCN(CC)CCc1c(C)[nH]c(C(=O)OCc2ccccc2)c1C` [Compound 853427], the “% Activity” value was 70.8% and the FRatio was 1.
`O=C(NCCN1CCCCCC1)C1CCC(CNS(=O)(=O)c2cccc3cccnc23)CC1` (stereo not shown) [Compound 7969436] was tested, and the “% Activity” value was 51.8% and the FRatio was 0.97.
In the case of `COc1cc2c(C#N)c(N3CCN(C)CC3)nc(N)c2c(N)n1` [Compound 14746488], the “% Activity” value is reported as 51.4% and the FRatio is reported as 0.92.
`Cc1ccc(NC(=O)CSc2nnc(-c3ccco3)c(-c3ccco3)n2)cc1` [Compound 860242] was tested, and the “% Activity” value was 56.9% and the FRatio was 1.34.
With `CCOc1ccc(C(=O)Nc2ccc(N3CCN(C)CC3)cc2)cc1Br` [Compound 4256635] the “% Activity” value was 70% and the FRatio was 0.53.
`Cc1cc[n+]2c3c(cccc13)CCC2` [Compound 14748512] was tested, and the “% Activity” value was 76.6% and the FRatio was 0.76.
`CSc1nc2n(n1)C(c1ccccn1)C1=C(O)CC(C)(C)CC1=N2` (stereo not shown) [Compound 14742716] was tested, and the “% Activity” value was 61.8% and the FRatio was 0.84.
For `Cc1ccc(OCCC(=O)OCC(=O)Nc2ccc(Cl)cn2)cc1` [Compound 3713376], the “% Activity” value was 54.8% and the FRatio was 1.43.
`Nc1nc(-c2ccco2)nn1C(=O)CCc1ccccc1` [Compound 4254649] was tested, and the “% Activity” value was 63.2% and the FRatio was 0.83.
In the case of `Cc1ccccc1C1C(=O)c2sc3nc4c(c(=O)n3c2C1=O)CCC4` (stereo not shown) [Compound 7977096], the “% Activity” value is reported as 50.8% and the FRatio is reported as 0.88.
`CCOc1cc(/C=C2\C(=O)N(c3nc(-c4ccc(Br)cc4)cs3)N=C2c2ccccc2)ccc1O` [Compound 14733887] was tested, and the “% Activity” value was 68.2% and the FRatio was 0.76.
`O=[N+]([O-])c1cc(/C=N/Nc2nccs2)ccc1O` [Compound 14746394] was tested, and the “% Activity” value was 107% and the FRatio was 0.75.
For `Nc1ccc(N2CCN(C(=O)c3cccs3)CC2)cc1` [Compound 14726238], the “% Activity” value was 57.8% and the FRatio was 0.87.
For `CC1CCN(c2ccc(C(=O)O)cc2N)CC1` [Compound 852908], the “% Activity” value was 73.3% and the FRatio was 0.75.
In the case of `O=C(Nc1ccc(N2CCCC2)cc1)C(c1ccccc1)c1ccccc1` [Compound 14730995], the “% Activity” value is reported as 64.1% and the FRatio is reported as 0.9.
For `CCS(=O)(=O)NCc1ccc2c(c1)cc(C)n2C` [Compound 14733498], the “% Activity” value was 51.8% and the FRatio was 1.
In the case of `Cc1ccc(S(=O)(=O)NCC(=O)OCC(=O)Nc2ncc(Cl)cc2Cl)cc1` [Compound 3711819], the “% Activity” value is reported as 63.4% and the FRatio is reported as 0.8.
`CCc1ccc(NC(=O)c2noc3c2CCC3)cc1` [Compound 14733222] was tested, and the “% Activity” value was 68.1% and the FRatio was 0.73.
`Cc1ccc(-n2nc3ccc(NC(=O)c4ccc5c(c4)OCO5)cc3n2)cc1` [Compound 14732083] was tested, and the “% Activity” value was 69.5% and the FRatio was 0.83.
`COc1ccc(OC)c(NC(=O)CCN2CCC(C)CC2)c1` [Compound 846609] was tested, and the “% Activity” value was 73% and the FRatio was 0.65.
`Cc1nc(NC(=O)c2ccco2)sc1-c1csc(Nc2ccc(Cl)cc2Cl)n1` [Compound 17410012] was tested, and the “% Activity” value was 54.4% and the FRatio was 0.7.
For `COc1ccccc1NCCC(=O)OCC(=O)NCc1ccco1` [Compound 3712399], the “% Activity” value was 85.2% and the FRatio was 0.95.
In the case of `O=C(CCN1CCc2ccccc21)c1ccc2c(c1)OCCO2` [Compound 857910], the “% Activity” value is reported as 79.4% and the FRatio is reported as 0.24.
For `COCc1cc(C2SCC(=O)Nc3c2c(O)nn3C(C)C)ccc1OC` (stereo not shown) [Compound 4258907], the “% Activity” value was 67.1% and the FRatio was 1.2.
`C[C@@H](C(=O)Nc1nc(-c2ccccn2)cs1)N1C(=O)C2CCCCC2C1=O` (stereo partly shown) [Compound 16952892] was tested, and the “% Activity” value was 51.1% and the FRatio was 1.04.
For `COc1ccc2c(c1)c(=O)oc1cc(OCC(=O)N3CCC(C)CC3)ccc12` [Compound 4257486], the “% Activity” value was 104.8% and the FRatio was 0.49.
In the case of `ClC1=CCC2CN(CCN3CCCCC3)CC2C1` (stereo not shown) [Compound 860752], the “% Activity” value is reported as 67.7% and the FRatio is reported as 0.79.
`Cc1cc(C)c(I)c(S(=O)(=O)N2CCC(C(=O)OCC(=O)N3c4ccccc4NC(=O)C3(C)C)CC2)c1C` [Compound 16952989] was tested, and the “% Activity” value was 72.9% and the FRatio was 0.93.
`O=C(Nc1ccccc1C(=O)O)c1ccccc1` [Compound 14723278] was tested, and the “% Activity” value was 85.4% and the FRatio was 0.87.
For `Cc1cnnn1-c1ccc(C(=O)CCl)cc1` [Compound 14744853], the “% Activity” value was 52.9% and the FRatio was 0.82.
In the case of `O=C1c2ccccc2C(=O)N1CC#CCN1CCN(C2CCCCC2)CC1` [Compound 856035], the “% Activity” value is reported as 56.3% and the FRatio is reported as 0.7.
`O=C(N/N=C1\C(=O)c2cccc3cccc1c23)c1ccc(Cl)cc1` [Compound 16953557] was tested, and the “% Activity” value was 68.6% and the FRatio was 0.84.
With `CC(=O)c1c(CC(=O)O)nn(-c2nc3ccccc3s2)c1O` [Compound 14746319] the “% Activity” value was 69% and the FRatio was 0.7.
In the case of `Cn1c(SCC(=O)Nc2ccc3nc(SCC(=O)N4CCCC4)sc3c2)nnc1-c1ccc(N)cc1` [Compound 17386645], the “% Activity” value is reported as 53.9% and the FRatio is reported as 0.79.
In the case of `Cc1csc(N/N=C/c2ccc(O)c([N+](=O)[O-])c2)n1` [Compound 14746238], the “% Activity” value is reported as 57.1% and the FRatio is reported as 0.84.
With `O=C(CSc1nc(O)c2ccccc2n1)c1ccc(O)c(O)c1` [Compound 4242102] the “% Activity” value was 64.2% and the FRatio was 0.57.
With `Cc1ccc(S(=O)(=O)N2CCCCC2)cc1C(=O)Nc1nc[nH]n1` [Compound 3716232] the “% Activity” value was 50.5% and the FRatio was 0.86.
In the case of `O=C(COC(=O)c1ccc(S(=O)(=O)NCc2ccco2)cc1)NCC1CCCCC1` [Compound 16953469], the “% Activity” value is reported as 60.3% and the FRatio is reported as 1.01.
For `C=CCNS(=O)(=O)c1nc(C)c(Cl)c(C)c1C#N` [Compound 4251530], the “% Activity” value was 69.9% and the FRatio was 0.59.
In the case of `O=C1CCCC2=C1C(c1ccco1)Nc1ccc3ccccc3c12` (stereo not shown) [Compound 7975176], the “% Activity” value is reported as 52.2% and the FRatio is reported as 0.73.
`Cc1ccc(S(=O)(=O)Cc2ccc(C(=O)O)o2)cc1` [Compound 14737647] was tested, and the “% Activity” value was 66.5% and the FRatio was 0.86.
For `Cc1ccc(N2CN=c3s/c(=C\c4cccnc4)c(=O)n3C2)cc1` [Compound 858221], the “% Activity” value was 78.6% and the FRatio was 0.88.
In the case of `CCC1=[N+](C)CCn2c(C)ccc21` [Compound 14734567], the “% Activity” value is reported as 57.1% and the FRatio is reported as 1.
`O=C(COC(=O)C1CCN(S(=O)(=O)c2cc([N+](=O)[O-])ccc2Cl)CC1)Nc1ncc(Cl)cc1Cl` [Compound 14744641] was tested, and the “% Activity” value was 75.9% and the FRatio was 0.93.
`Cc1cc(N)ccc1N1CCCC1` [Compound 14744983] was tested, and the “% Activity” value was 86.5% and the FRatio was 0.71.
`COc1ccccc1N1CCN(C(=O)c2cc3c(s2)CCC3)CC1` [Compound 14746697] was tested, and the “% Activity” value was 74.1% and the FRatio was 0.9.
In the case of `COc1ccc2c(c1)c(=O)oc1cc(OCC(=O)N3CCc4ccccc4C3)ccc12` [Compound 14730322], the “% Activity” value is reported as 59.7% and the FRatio is reported as 0.75.
`C=CCn1c(SCC(=O)c2ccc(O)c(O)c2)nnc1-c1ccccc1OC` [Compound 863840] was tested, and the “% Activity” value was 54.2% and the FRatio was 0.88.
With `O=C(O)c1cccc(-n2cccc2/C=N/O)c1` [Compound 4243236] the “% Activity” value was 70% and the FRatio was 0.86.
With `O=C(COC(=O)CN1C(=O)c2ccccc2C1=O)Nc1ncc(Cl)cc1Cl` [Compound 3711621] the “% Activity” value was 58.7% and the FRatio was 1.36.
In the case of `Cc1ccc2nc(O)c(C3C(C#N)=C(N)Oc4c3ccc3cccnc43)cc2c1` (stereo not shown) [Compound 14720783], the “% Activity” value is reported as 55% and the FRatio is reported as 0.84.
`CN(C)c1cccc(C(=O)OCc2cc(=O)oc3cc(O)ccc23)c1` [Compound 17388495] was tested, and the “% Activity” value was 71.7% and the FRatio was 1.
For `O=C(NCc1ccco1)c1c2c(nc3ccccc13)CCC2` [Compound 3715091], the “% Activity” value was 62.4% and the FRatio was 0.86.
In the case of `c1coc(C2Nc3cccc4cccc(c34)N2)c1` [Compound 844697], the “% Activity” value is reported as 78.1% and the FRatio is reported as 1.08.
For `CSc1nnc(-c2ccco2)c(-c2ccco2)n1` [Compound 859770], the “% Activity” value was 107% and the FRatio was 0.53.
`COC(=O)c1cccc(NC(=O)CSc2nc(C)cc(O)n2)c1` [Compound 4262437] was tested, and the “% Activity” value was 59.9% and the FRatio was 0.64.
